Laboratory results taken from PubChem BioAssay (NCI).
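Method: 48-hour compound exposure of cells in 96-well plates, five concentrations, linear interpolation of endpoints. Here, GI50 denotes the concentration required for 50% inhibition of growth. TGI is the concentration that stops growth completely.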

Legend:
Assay in all cases: growth of human tumour cells (NCI), 48 h
EKVX NSCLC = test system: EKVX NSCLC
HCC-2998 colon = test system: HCC-2998 colon
HOP-62 NSCLC = test system: HOP-62 NSCLC
HOP-92 NSCLC = test system: HOP-92 NSCLC
NCI/ADR-RES ovarian = test system: NCI/ADR-RES ovarian
OVCAR-4 ovarian = test system: OVCAR-4 ovarian
RPMI-8226 leukemia = test system: RPMI-8226 leukemia
UO-31 renal = test system: UO-31 renal

Structure (SMILES) | TGI (EKVX NSCLC) [µM] | TGI (HCC-2998 colon) [µM] | TGI (HOP-62 NSCLC) [µM] | TGI (HOP-92 NSCLC) [µM] | TGI (NCI/ADR-RES ovarian) [µM] | TGI (OVCAR-4 ovarian) [µM] | TGI (RPMI-8226 leukemia) [µM] | TGI (UO-31 renal) [µM] | GI50 (EKVX NSCLC) [µM] | GI50 (HCC-2998 colon) [µM] | GI50 (HOP-62 NSCLC) [µM] | GI50 (HOP-92 NSCLC) [µM] | GI50 (NCI/ADR-RES ovarian) [µM] | GI50 (OVCAR-4 ovarian) [µM] | GI50 (RPMI-8226 leukemia) [µM] | GI50 (UO-31 renal) [µM]
COc1ccc2c(c1O)C13CCN(C)C(C2)C1CCC1(C3)OCCO1 (centres undefined) | > 100 | > 100 | > 100 | > 100 | > 100 | > 100 | > 100 | > 100 |  |  |  |  |  |  |  | 
Cc1ccc2c(c1)c1nc3cc(C)c(C)cc3nc1n2CCN(C)C | 11.4 | 3.98 | 7.26 | 4.42 | 5.42 | 19.6 | 5.2 | 3.48 | 2.95 | 1.79 | 1.78 | 1.09 | 1.15 | 3.43 | 2.06 | 1.07
O=C(Nc1ccc(F)cc1)Nc1ccccc1CNc1nc(Nc2ccc(OCCN3CCCC3)cc2)ncc1Cl | 9.82 | 9.27 | 4.21 | 2.49 | 10.4 | 2.93 | 3.72 | 1.49 | 2.22 | 2.73 | 1.39 | 0.849 | 2.59 | 1.11 | 1.4 | 0.742
CCOC(=O)c1sc2ncn(Cc3cccc(Br)c3)c(=O)c2c1C | > 100 | > 100 | 65.4 | > 100 | > 100 | 81.3 | > 100 | > 100 | 25 | 66.8 | 19.4 | 31.1 | 18.9 | 30.9 | 27.6 | 34.2
CCCCCc1nc2c(c3c1CCCC3)CCCC2 | 26.9 | 29.5 | 29.1 | 8.36 | 22.6 | 95.3 | 16.4 | 13.9 | 4.21 | 10.2 | 13.1 | 1.95 | 3.91 | 5.61 | 3.39 | 2.19
C#CCN(Cc1nc2cc(C(F)(F)F)ccc2nc1-c1ccccc1)c1ccc(OC(F)(F)F)cc1 | > 100 | 91.9 | > 100 | 77.3 | > 100 | > 100 | > 100 | > 100 | 32.6 | 30.3 | > 100 | 18.5 | > 100 | > 100 | 23.3 | 50.7
CC(C)c1c(C(=O)Nc2ccccc2)c(-c2ccccc2)c(-c2ccc(F)cc2)n1CC[C@@H]1CC=CC(=O)O1 | 3.68 | 3.5 | 4.14 | 2.28 | 6.09 |  | 1.17 | 2.57 | 1.86 | 1.92 | 1.85 | 0.419 | 2.46 |  | 0.285 | 1.28
COc1cc2c3c(n(CCCN(CCN)CCCn4c5c(c6cc(OC)c(OC)cc6c4=O)C(=O)c4cc6c(cc4-5)OCO6)c(=O)c2cc1OC)-c1cc2c(cc1C3=O)OCO2 | > 62.6 | 5.98 | 1.64 | 15 | > 76.1 | > 83.8 |  | 8.18 | 11.9 | 0.407 | 0.33 | 1.29 | 2.22 | 13.3 |  | 0.892
Oc1ccc(CN2CCC(N3CCOCC3)CC2)c2cccnc12 | > 100 | > 100 | > 100 | > 100 | > 100 | > 100 | > 100 | 63.8 | 36.6 | 51.7 | 42.7 | 65.9 | 29.2 | 22.9 | 32.7 | 14.7
O=c1cc(-c2ccccc2)oc2cc(O)c(O)c(O)c12 | 63.3 | 37.9 | 31.2 | 48.7 | 44.6 | > 100 | > 100 | > 100 | 18.9 | 15 | 9.49 | 3.58 | 16 | 47.1 | 9.27 | 13.9
N/C(=C\C(=O)n1nc(-c2ccccc2)cc1N)c1ccccc1 | 35.9 | 34.2 | 32.4 | 31.8 | > 100 | 47.1 | 16.2 | 65.3 | 5.57 | 11.8 | 8.3 | 4.59 | 3.2 | 12.5 | 2.75 | 3.71
